Laboratory results taken from PMC11642940, “A New Demand for Improved Selectivity and Potency of Cyanine Dyes as Antiproliferative Agents Against Colorectal Cancer Cells” (Molecules, 2024).

Columns and labels:
[1] = Photostability assay (absorbance decay under white light); type: physicochemical; settings: 10 µM in PBS, after 30 min white light irradiation; 436 nm for 5, 439 nm for 10
Experimental: To further explore this, the photostability of these dyes was tested. […] A gradual linear degradation continued for at least 120 min. This degradation likely explains the decreased cytotoxicity observed in the photocytotoxicity assay.
In a 96-well plate, 100 µL of dyes 5 and 10 at a concentration of 10 µM, prepared from 10 mM DMSO stock solution diluted in PBS, was added at each well. The photostability assay was performed by irradiating the as previously described for photocytotoxicity evaluation, repeated several times up to 120 min. Spectrophotometric readings were taken over the maximum absorption wavelength of each dye (436 nm for 5 and 439 nm for 10). Two independent experiments were performed in quadruplicate, and the obtained absorbance values were normalized.

[2] = biological target: T1, topoisomerase II (Topo II) (Homo sapiens, UniProt P11388); assay: Topoisomerase II inhibitory assay (pRYG DNA relaxation, agarose gel); type: biochemical; settings: 50 µM, 5.0 units Topo II, 250.0 ng pRYG DNA, mean ± SD of two assays
T1 construct: purchased TopoGEN Inc. (Buena Vista, CO, USA) 1009-1
Experimental: To do so, the impact of cyanines on Topo II activity was assessed using a pRYG DNA substrate in the presence and absence of the dyes. This was monitored via a Topo II drug screening kit followed by agarose gel electrophoresis. […] All samples applied to the agarose gel contained 5.0 units of Topo II and 250.0 ng of pRYG DNA as the substrate. Linear pRYG DNA (Lane DNA marker) served as the reference control for the DNA band positions, and 50 µM VP-16 (Lane 3) was used as a positive control. […]
The formation of relaxed DNA products, indicating Topo II activity, is visible in Lane 1 (incubation of pRYG DNA with Topo II) of Figure 8A. […] The intensity of the relaxed DNA bands from two independent experiments was quantified for all samples and normalized to the Topo II activity in the absence of inhibitors (No drug sample, Lane 1) using Image Lab, Version 6.1 (Figure 8B). […]
Cyanine stock solutions in DMSO were further diluted with Tris-HCl (DMSO:Tris-HCl–1:9) to the concentrations desired for assays. […] Electrophoresis was run at 110 V for 40 min and analyzed under ultraviolet (UV) light using a FireReader Imaging System (UVITEC, Cambridge, UK). Band intensities were measured using the software Image Lab, Version 6.1 (BioRad Laboratories, Hercules, CA, USA). […]

Caco-2 cells [3] = assay: Fluorescence microscopy (cell penetration, intracellular localization); type: cell-based, human; settings: Caco-2, 1 µM, 20 h, Hoescht 33342 counterstain
Experimental: The cells were incubated with the dyes for 20 h, followed by fixation and staining with Hoescht 33342, a commonly used cell-permeant nucleic acid stain.
Fluorescence microscopy was used to confirm whether the compounds under study cross the cell membrane, and to understand where they are located within the cell (nucleus and/or cytoplasm). To this end, the procedure previously described in Lima et al. was followed. Hoescht 33342 was used as a specific marker. Cells were seeded in 24-well culture plates containing sterile circular coverslips of 15 mm diameter. After 48 h for cell adhesion, they were incubated with the compounds for 20 h. After this incubation period, the cells were washed three times with PBS and the fixation process was carried out. To do this, the contents of the wells were removed, and a 4% formalin solution was added until the wells were covered, followed by an incubation at room temperature for 15 min. Then, the washing process was repeated three times with PBS, and the cells were then incubated with a solution of Hoescht 33342 (1:500) for 10 min, in the dark and at room temperature. Subsequently, the wells were washed again with PBS and the slides were mounted with permanent mounting medium (Dako) and left to dry in a cool and dry place for 24 h. […]

Caco-2 cells [4] = assay: Caco-2 morphological analysis (optical microscopy); settings: 72 h
Experimental: Sorbitol and 5-FU were used as positive controls, while untreated cells served as the negative control.
Caco-2 cells near confluency were trypsinized, counted, and then seeded at 3 × 10^4 cells/mL (3 mL) in 35 mm cell culture dishes previously treated for tissue culture. After cell adherence (48 h), they were incubated with solutions under study for 72 h in the absence of light. The cellular morphology was verified every 24 h using a CKX41 SF inverted microscope (Olympus, Tokyo, Japan) with 10, 20, or 40× objectives. A DC6 V digital camera (Olympus, Tokyo, Japan) coupled to the microscope was used to capture cell imaging. The morphology of cells in the presence or absence of treatments was compared.

T1 sequence (P11388 whole entry): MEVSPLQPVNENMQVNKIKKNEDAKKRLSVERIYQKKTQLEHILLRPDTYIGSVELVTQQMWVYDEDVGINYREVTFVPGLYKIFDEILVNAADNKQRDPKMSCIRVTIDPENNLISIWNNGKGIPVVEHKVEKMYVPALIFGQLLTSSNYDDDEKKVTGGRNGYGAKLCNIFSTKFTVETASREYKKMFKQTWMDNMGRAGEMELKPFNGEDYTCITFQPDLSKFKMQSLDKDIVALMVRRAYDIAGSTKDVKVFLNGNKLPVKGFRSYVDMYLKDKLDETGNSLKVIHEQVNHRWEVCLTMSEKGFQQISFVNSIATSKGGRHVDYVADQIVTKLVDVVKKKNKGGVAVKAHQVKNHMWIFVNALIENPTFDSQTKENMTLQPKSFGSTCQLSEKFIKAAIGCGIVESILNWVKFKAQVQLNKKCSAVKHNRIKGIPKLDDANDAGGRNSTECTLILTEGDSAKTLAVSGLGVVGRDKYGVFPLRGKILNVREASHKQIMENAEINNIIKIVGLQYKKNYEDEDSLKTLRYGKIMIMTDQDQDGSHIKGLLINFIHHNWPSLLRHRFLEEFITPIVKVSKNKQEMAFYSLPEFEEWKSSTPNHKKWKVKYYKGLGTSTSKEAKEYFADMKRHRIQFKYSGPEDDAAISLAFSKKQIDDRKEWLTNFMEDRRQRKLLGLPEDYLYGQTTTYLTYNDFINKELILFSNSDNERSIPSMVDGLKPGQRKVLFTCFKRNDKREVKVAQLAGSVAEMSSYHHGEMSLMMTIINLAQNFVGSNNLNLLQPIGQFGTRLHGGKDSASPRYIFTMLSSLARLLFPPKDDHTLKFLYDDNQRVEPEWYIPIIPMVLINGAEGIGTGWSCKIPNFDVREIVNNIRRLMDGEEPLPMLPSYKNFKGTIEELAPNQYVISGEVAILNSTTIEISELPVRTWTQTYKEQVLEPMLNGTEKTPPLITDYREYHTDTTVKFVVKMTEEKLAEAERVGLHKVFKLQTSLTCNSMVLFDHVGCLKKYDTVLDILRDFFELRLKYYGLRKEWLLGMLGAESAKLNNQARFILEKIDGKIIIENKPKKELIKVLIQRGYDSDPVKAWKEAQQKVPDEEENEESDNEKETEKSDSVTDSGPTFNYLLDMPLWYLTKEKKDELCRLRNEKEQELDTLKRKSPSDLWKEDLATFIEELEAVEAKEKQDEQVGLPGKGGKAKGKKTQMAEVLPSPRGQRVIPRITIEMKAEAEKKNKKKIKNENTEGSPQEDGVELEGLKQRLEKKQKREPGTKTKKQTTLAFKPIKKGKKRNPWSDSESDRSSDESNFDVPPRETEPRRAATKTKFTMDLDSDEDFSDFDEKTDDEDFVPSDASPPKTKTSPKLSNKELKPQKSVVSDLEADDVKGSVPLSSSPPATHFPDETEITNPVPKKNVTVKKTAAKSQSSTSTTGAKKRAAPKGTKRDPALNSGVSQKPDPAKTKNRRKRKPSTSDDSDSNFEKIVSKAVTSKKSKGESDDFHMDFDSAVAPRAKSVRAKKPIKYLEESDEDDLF

SMILES	reduction in absorbance at maximum wavelength [1] [%]	relative intensity of relaxed DNA band (normalized to No drug sample) [2]	cell membrane crossing, intracellular localization and fluorescence (Caco-2 cells [3])	morphological changes of Caco-2 cells (Caco-2 cells [4]; 1 µM)	morphological changes of Caco-2 cells (Caco-2 cells [4]; 10 µM)
CN1C(=Cc2oc3ccccc3[n+]2C)C=Cc2ccccc21.Cc1ccc(S(=O)(=O)[O-])cc1 [Dye 5, 3-Methyl-2-((1-methylquinolin-2(1H)-ylidene)methyl)benzo[d]oxazol-3-ium 4-methylbenzenesulfonate]	3.7	0.31 ± 0.063	stain a specific organelle within the nucleoplasm but does not localize in the DNA	a few apoptotic bodies	
CCN1C(=Cc2sc3cc([N+](=O)[O-])ccc3[n+]2CC)Sc2ccccc21.Cc1ccc(S(=O)(=O)[O-])cc1 [Dye 10, 3-Ethyl-2-((3-ethylbenzo[d]thiazol-2(3H)-ylidene)methyl)-6-nitrobenzo[d]thiazol-3-ium 4-methylbenzenesulfonate]	2.5	0.65 ± 0.024	significantly lower fluorescence intensity compared to dye 5		noticeable reduction in the size of Caco-2 cells
